# In patent US20260258050A1, “IMMUNOMODULATOR” (HITGEN INC., priority 2023, published 2026):
# Key:
# Human IL-17AF = biological target: T1, Human IL-17AF (Homo sapiens, UniProt Q16552+Q96PD4); assay: IL-17AF ELISA (competitive ELISA, IL-17AF/IL-17Ra receptor-ligand binding); details: human IL-17AF coated plate, human IL-17Ra, read-out: IC50, inhibitory activity of compounds on human IL-17AF
# T1 construct: purchased Sino Biological Inc. CT047-H08H
# T1 sequence (Q16552 24-155): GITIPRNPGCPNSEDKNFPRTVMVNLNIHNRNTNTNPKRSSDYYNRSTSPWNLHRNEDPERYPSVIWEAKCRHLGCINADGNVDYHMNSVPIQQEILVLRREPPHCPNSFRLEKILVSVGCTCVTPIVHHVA
# T1 sequence (Q96PD4 31-163): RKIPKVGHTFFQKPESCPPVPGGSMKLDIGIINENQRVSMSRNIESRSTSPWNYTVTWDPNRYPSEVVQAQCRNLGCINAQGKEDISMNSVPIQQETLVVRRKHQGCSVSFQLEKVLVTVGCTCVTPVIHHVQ
# Description: Experiment Example 2 IL-17AF ELISA
# The inhibitory effects of human IL-17AF inhibitors on receptor-ligand binding were quantitatively determined by a competitive ELISA.
# The ELISA was performed through the following steps.
# Human IL-17AF (Sino Biological Inc., Cat #CT047-H08H) was diluted with coating buffer (50 mM PBS, pH 7.4) to reach a concentration of 0.625 μg/ml. 100 μL of the resulting solution was added to each well of a 96-well plate, and the plate was incubated at 37° C. for 30 min. In the blank group, 100 μL of coating buffer was added instead of the IL-17AF solution.
# The plate was washed four times with 10 mM PBST (pH 7.4). 200 μL was used per well for each wash. After the final wash, the plate was tapped dry on absorbent paper.
# Fresh 5% (w/v) skim milk solution was prepared before the experiment. For example, 5 grams of skim milk powder (Bio-Rad, Cat #170-6404) was completely dissolved in 100 mL of 10 mM PBST. 200 μL of the 5% (w/v) skim milk solution was added to each well, and the plate was incubated on a shaker at 25° C. for 30 min.
# (S4) Preparation of 100× to-be-Tested Compound Solutions
# During step (S3), the to-be-tested compound solutions were prepared. Each powdered compound was dissolved in dimethyl sulfoxide (DMSO) to reach a stock concentration of 10 mM. The to-be-tested compound solutions were then serially diluted four-fold with DMSO to obtain nine concentrations ranging from […].
# (S6) Pre-Incubation of IL-17AF with to-be-Tested Compound Solutions
# 89 μL of PBST and 1 μL of each of the to-be-tested compound solutions were added to each well and mixed. The plate was pre-incubated at 25° C. for 10 min. In the blank group and the control group, 1 μL of DMSO was added instead of the to-be-tested compound solutions.
# (S7) Incubation with Human IL-17Ra
# 10 μL of 100 nM IL-17Ra (Sino Biological Inc., Cat #10895-H03H) was added to each well, followed by incubation on a shaker at 25° C. for 30 min. The receptor solution was prepared in 10 mM PBST.
# (S9) Incubation with Horseradish Peroxidase-Conjugated Antibody
# 100 μL of mouse anti-Fc tag HRP-conjugated antibody (Sino Biological Inc., Cat #10702-MM01T-H) was added to each well. The plate was incubated on a shaker at 25° C. for 30 min. The antibody was diluted with 5% (w/v) skim milk solution at 1:5,000 (v/v).
# 100 μL of TMB substrate solution (BD, Cat #555214) was added to each well. Substrate A and substrate B were freshly mixed at a volume ratio of 1:1 before use. The plate was incubated in the dark at 25° C. for 5-15 min.
# (S12) Termination and Detection
# The color reaction was terminated by addition of 2.5 M HCl. Absorbance was measured at 450 nm using a BMG PHERStar microplate reader.
# (S13) Calculation of Half-Maximal Inhibitory Concentration (IC50)
# The relative percent residual activity at each compound concentration was calculated according to Equation 1. The IC50 value of each test compound was then calculated in GraphPad 6 using the equation for log(inhibitor) versus normalized response with variable slope, as shown in Equation 2.
# relative percent residual activity (%)=[(absorbance of sample−absorbance of blank group)/(absorbance of control group−absorbance of blank group)]%. Equation 1: […]
# The compounds prepared in the Examples were tested for IL-17AF inhibitory activity according to the above method.
# Human IL-17A [1] = biological target: T2, Human IL-17A (Homo sapiens, UniProt Q16552); assay: IL-17A enzyme-linked immunosorbent assay (competitive ELISA, IL-17A/IL-17Ra receptor-ligand binding); set-up: purchased Sino Biological Inc. 12047-H07B; details: human IL-17A coated plate, human IL-17Ra, read-out: IC50, inhibitory activity of compounds on human IL-17A
# T2 sequence (Q16552 20-155 limits assumed): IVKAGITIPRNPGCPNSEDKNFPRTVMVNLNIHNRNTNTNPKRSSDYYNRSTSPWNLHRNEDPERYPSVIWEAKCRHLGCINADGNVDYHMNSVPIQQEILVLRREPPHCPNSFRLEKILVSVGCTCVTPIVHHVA
# Summary of the method: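 Competitive ELISA with plates coated with human IL-17A at 0.2 μg/ml, blocked with 5% skim milk. Compound pre-incubated with IL-17A 10 min at 25 °C, then 16 nM IL-17Ra stock added for 30 min. Bound receptor detected by anti-Fc HRP/TMB, A450. IC50 from variable-slope fit of blank-corrected residual activity.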
# Human IL-17A [2] = biological target: T2, Human IL-17A; assay: Inhibition of human IL-17A protein-induced GROα/CXCL1 production in HT-29 cells; format: cell-based; set-up: purchased R&D 317-ILB; host or cells: added exogenously to HT-29 cells; details: 30 ng/mL human IL-17A protein, 48 h, GROα in supernatant by ELISA kit, read-out: Inhibitory IC50 of compounds on HT-29 cell GROα/CXCL1
# Description: Experiment Example 3 Inhibition of Human IL-17A Protein-Induced GROα/CXCL1 Production in HT-29 Cells by Compounds
# This assay was conducted to evaluate the ability of the compounds to inhibit human IL-17A protein-induced production of the chemokine growth-regulated oncogene alpha/C-X-C motif chemokine ligand 1 (GROα/CXCL1) in HT-29 cells.
# Human colorectal adenocarcinoma epithelial HT-29 cells (Chengdu Zhongyuan Gongchuang Technology Co., Ltd.) were seeded into a 96-well plate at a density of 5×10^4 cells per well and were cultured overnight in an incubator at 37° C.
# 30 ng/mL of human IL-17A protein (R&D, #317-ILB) was mixed with gradient concentrations of the IL-17A small-molecule inhibitor, or with […] of a positive control IL-17A antibody (R&D, #AF-317-NA). These mixtures were incubated at 37° C. for 1 h and were then added to the plate. The mixtures were co-incubated with the HT-29 cells at 37° C. for 48 h. Thereafter, the level of GROα in the cell culture supernatant was determined using a GROα ELISA kit (Cisbio, #62HCXC1PEG).
# The inhibitory activity of each compound was expressed as the half-maximal inhibitory concentration (IC50) for inhibition of GROα/CXCL1 production in HT-29 cells.
SMILES,IC50 (Human IL-17AF) [nM],IC50 (Human IL-17A [1]) [nM],IC50 (Human IL-17A [2]) [nM]
CCn1nccc1C(=O)N[C@H](C(=O)Nc1ccc2c(c1)CN(C)CCc1n[nH]c(C)c1-2)C(C1CC1)C1CC1 [compound 25],100 to 500,50 to 150,
CCn1nccc1C(=O)N[C@H](C(=O)Nc1ccc2c(c1)COCCc1n[nH]c(C)c1-2)C1CCCCC1 [compound 8],100 to 500,50 to 150,
Cc1[nH]nc2c1-c1cc(F)c(NC(=O)[C@@H](NC(=O)c3ccc(C#N)n3C)C(C3CC3)C3CC3)cc1COCC2 [compound 227],100 to 500,≤ 50,
COCCN1Cc2cc(NC(=O)[C@@H](NC(=O)c3ccnn3C(C)C)C(C3CC3)C3CC3)c(F)cc2-c2c(n[nH]c2C)CC1=O [compound 137],≤ 100,,100 to 500
"CCn1nccc1C(=O)N[C@H](C(=O)Nc1cc2c(cc1F)-c1c(n[nH]c1C)CC(C)OC2)C(C1CC1)C1CC1 (single isomer, unassigned) [compound 119a]",100 to 500,≤ 50,
Cc1[nH]nc2c1-c1cc(F)c(NC(=O)[C@@H](NC(=O)c3conc3C3CC3)C(C3CC3)C3CC3)cc1COCC2 [compound 34],≤ 100,≤ 50,
Cc1[nH]nc2c1-c1cc(F)c(NC(=O)[C@@H](NC(=O)c3conc3C(C)C)C(C3CC3)C3CC3)cc1COCC2 [compound 35],100 to 500,≤ 50,
Cc1[nH]nc2c1-c1cc(F)c(NC(=O)[C@@H](NC(=O)c3ccnn3CCN3CCOCC3)C(C3CC3)C3CC3)cc1COCC2 [compound 97],100 to 500,50 to 150,
CCn1nccc1C(=O)N[C@H](C(=O)Nc1cc2c(cc1F)-c1c(n[nH]c1C)CC(=O)N(CCOC)C2)C(C1CC1)C1CC1 [compound 138],≤ 100,,100 to 500
Cc1[nH]nc2c1-c1ccc(NC(=O)[C@@H](NC(=O)c3ccnn3C)C(C3CC3)C3CC3)cc1CN(C)CC2 [compound 26],100 to 500,50 to 150,
CCc1nocc1C(=O)N[C@H](C(=O)Nc1cc2c(cc1F)-c1c(n[nH]c1C)CCOC2)C(C1CC1)C1CC1 [compound 33],≤ 100,≤ 50,
Cc1[nH]nc2c1-c1cc(F)c(NC(=O)[C@@H](NC(=O)c3ccnn3C)C(C3CC3)C3CC3)cc1CN(C)C(=O)C2 [compound 134],100 to 500,50 to 150,
CCn1nccc1C(=O)N[C@H](C(=O)Nc1ccc2c(c1)COCCc1n[nH]c(C)c1-2)C1c2ccc(F)cc2OCC12CC2 (some centres unmarked) [compound 9],100 to 500,≤ 50,
Cc1[nH]nc2c1-c1cc(F)c(NC(=O)[C@@H](NC(=O)c3ccnn3CC(C)(C)F)C(C3CC3)C3CC3)cc1COCC2 [compound 82],100 to 500,50 to 150,
[2H]C([2H])([2H])n1nccc1C(=O)N[C@H](C(=O)Nc1ccc2c(c1)COCCc1n[nH]c(C)c1-2)C(C1CC1)C1CC1 [compound 7],100 to 500,50 to 150,
Cc1[nH]nc2c1-c1cnc(NC(=O)[C@@H](NC(=O)c3ccnn3C(C)C)C(C3CC3)C3CC3)cc1CN(Cc1ccccc1)CC2 [compound 184],100 to 500,,
"CCn1nccc1C(=O)N[C@H](C(=O)Nc1cc2c(cc1F)-c1c(n[nH]c1C)CC(C)OC2)C(C1CC1)C1CC1 (single isomer, unassigned) [compound 119b]",100 to 500,≤ 50,
CCn1nccc1C(=O)N[C@H](C(=O)Nc1ccc2c(c1)COCCc1n[nH]c(C)c1-2)[C@H]1CC[C@H](C)CC1 [compound 10],100 to 500,≤ 50,
CCn1nccc1C(=O)N[C@H](C(=O)Nc1cc2c(cc1F)-c1c(n[nH]c1C)CC(C)(C)OC2)C(C1CC1)C1CC1 [compound 117],100 to 500,≤ 50,
Cc1[nH]nc2c1-c1ccc(NC(=O)[C@@H](NC(=O)c3ccnn3C(C)C)C(C3CC3)C3CC3)cc1CN(C)CC2 [compound 24],100 to 500,50 to 150,
Cc1[nH]nc2c1-c1cc(F)c(NC(=O)[C@@H](NC(=O)c3ccnn3CC(F)(F)F)C(C3CC3)C3CC3)cc1COCC2 [compound 94],100 to 500,≤ 50,
COCCn1nccc1C(=O)N[C@H](C(=O)Nc1cc2c(cc1F)-c1c(n[nH]c1C)CCOC2)C(C1CC1)C1CC1 [compound 57],100 to 500,≤ 50,
Cc1[nH]nc2c1-c1cc(F)c(NC(=O)[C@@H](NC(=O)c3ccnn3C3CC3)C(C3CC3)C3CC3)cc1COCC2 [compound 19],100 to 500,≤ 50,
Cc1[nH]nc2c1-c1cc(F)c(NC(=O)[C@@H](NC(=O)c3ccnn3C(C)C)C(C3CC3)C3CC3)cc1CN(C(C)C)CC2 [compound 162],100 to 500,50 to 150,
"Cc1[nH]nc2c1-c1cc(F)c(NC(=O)[C@@H](NC(=O)c3ccnn3C(C)C)C(C3CC3)C3CC3)cc1CN(C(C)C(F)(F)F)C(=O)C2 (single isomer, unassigned) [compound 186b]",100 to 500,≤ 50,
COCCN1Cc2cc(NC(=O)[C@@H](NC(=O)c3ccnn3C3CC3)C(C3CC3)C3CC3)c(F)cc2-c2c(n[nH]c2C)CC1=O [compound 139],100 to 500,,
Cc1[nH]nc2c1-c1cc(F)c(NC(=O)[C@@H](NC(=O)c3ccnn3C(C)C)C(C3CC3)C3CC3)cc1CN(C)CC2 [compound 154],100 to 500,≤ 50,
Cc1[nH]nc2c1-c1cc(F)c(NC(=O)[C@@H](NC(=O)c3ccnn3C(C)C)C(C3CC3)C3CC3)cc1CN(Cc1ccccc1)CC2 [compound 185],100 to 500,,
